Test results taken from patent US10124012B2, “Method for treatment of hyperglycemia and hyperlipidemia” (priority 2016, dated 2018).

What was measured:
Format in all cases: in vivo, C57BL/6J mice
[1] = test system: aP2; test: Liver mRNA by semi-quantitative RT-PCR: aP2; details: HFD-fed mice, oral gavage once daily 4 weeks, AnK 10, 20, 40, Feno 250, Metf 300 mg/kg/day, vs HF group
Excerpt: (§1) The 4-week old male C57BL/6J mice (total amount n=63) were obtained from the National Laboratory Animal Center (Taipei, Taiwan). After acclimatization for one week, all of the mice were randomly assigned into a control (CON) group and a high-fat diet (HFD) group. […] After HFD feeding for 8 weeks, the HFD group was randomly subdivided into six groups (n=9 per group) receiving different treatments and fed on HFD. […] The HF+AnK1, HF+AnK2, and HF+AnK3 groups are collectively termed AnK-treated HFD groups in the following examples. The CON mice were administered vehicle. All treatments were administered via oral gavage once daily. After administration for 4 weeks, all mice were fasted 12 hours, and blood was collected from the retro-orbital sinus under ether anesthesia. […]
(§2) Total RNA from liver tissue of mice was isolated with a Trizol Reagent (Molecular Research Center, Inc., Cincinnati, Ohio, USA) according to the manufacturer's instructions. The integrity of the extracted total RNA was examined by 2% agarose gel electrophoresis, and the RNA concentration was determined by the ultraviolet (UV) light absorbency at 260 nm and 280 nm (Spectrophotometer U-2800A, Hitachi). […]
(§3) Levels of mRNA of target genes were quantified by semi-quantitative reverse transcription polymerase chain reaction (RT-PCR). […] PCR products were analyzed by 2% agarose gel and stained with ethidium bromide.

[2] = test system: SREBP1c; test: Liver mRNA by semi-quantitative RT-PCR: SREBP1c; details: HFD-fed mice, oral gavage once daily 4 weeks, AnK 10, 20, 40, Feno 250, Metf 300 mg/kg/day, vs HF group
Excerpt: as §1, §2, §3

[3] = test system: PPARα; test: Western blotting of hepatic PPARα; details: liver; HFD-fed mice; AnK 10, 20, 40, Feno 250, Metf 300 mg/kg/day; vs HF group
Excerpt: as §1, with “anesthesia. At the end of the experiment, the mice were sacrificed via carbon dioxide inhalation.” for “anesthesia.”
About 0.1 g of liver tissue, skeletal muscle, or adipose tissue was used for the homogenate samples. […] The protein concentration in supernatant was determined with a BCA protein assay kit (Thermo Scientific, Rockford, Ill., USA). […] Immunoreactive bands were detected with ECL reagent kit (GE Healthcare BioSciences, Buckinghamshire, UK). The intensity of Western blot signals was analyzed using AlphaEase FC software (Alpha Innotech Corporation, Randburg, South Africa). […]

[4] = test system: FAS; test: Western blotting of FAS in liver and adipose tissue; details: HFD-fed mice, AnK 10, 20, 40, Feno 250, Metf 300 mg/kg/day, vs HF group; for expression levels of FAS (protein): adipose tissue; for FAS expression levels (protein): liver
Excerpt: The 4-week old male C57BL/6J mice (total amount n=63) were obtained from the National Laboratory Animal Center (Taipei, Taiwan). After acclimatization for one week, all of the mice were randomly assigned into a control (CON) group and a high-fat diet (HFD) group. […] After HFD feeding for 8 weeks, the HFD group was randomly subdivided into six groups (n=9 per group) receiving different treatments and fed on HFD. […] The HF+AnK1, HF+AnK2, and HF+AnK3 groups are collectively termed AnK-treated HFD groups in the following examples. The CON mice were administered vehicle. All treatments were administered via oral gavage once daily. After administration for 4 weeks, all mice were fasted 12 hours, and blood was collected from the retro-orbital sinus under ether anesthesia. At the end of the experiment, the mice were sacrificed via carbon dioxide inhalation. Liver, adipose tissue, and skeletal muscle were collected and immediately stored at −80° C. for target gene analysis.
About 0.1 g of liver tissue, skeletal muscle, or adipose tissue was used for the homogenate samples. Samples were powdered under liquid nitrogen and homogenized for 20 seconds in 500 μL buffer containing 20 mM Tris-HCl (pH 7.4 at 4° C.), 2% SDS, 5 mM EDTA, 5 mM EGTA, 1 mM dithiothreitol (DTT), 100 mM NaF, 2 mM sodium vanadate, 0.5 mM phenylmethylsulfonyl fluoride, 10 μg/mL leupeptin, and 10 μL/mL pepstatin. The total membrane fraction was used for measurement. The protein concentration in supernatant was determined with a BCA protein assay kit (Thermo Scientific, Rockford, Ill., USA). […] The membrane was blocked with 5% slim milk in Tris-buffered saline (TBS)(Amersham BioSciences, Uppsala, Sweden) containing 0.05% Tween-20 (Bio Rad, CA, USA) and incubated overnight at 4° C. with antibodies at 1:200 dilution. Subsequently, the membrane was washed three times with TBS containing 0.05% Tween-20 and incubated with secondary antibody anti-rabbit (1:1000)(Jackson ImmunoResearch Laboratories, Inc., PA, USA) for 1 hour. Immunoreactive bands were detected with ECL reagent kit (GE Healthcare BioSciences, Buckinghamshire, UK). The intensity of Western blot signals was analyzed using AlphaEase FC software (Alpha Innotech Corporation, Randburg, South Africa). The structural protein GAPDH in the samples was used as the loading control.

[5] = test system: high-fat diet-fed C57BL/6J mouse; test: Histopathology of epididymal white adipose tissue (adipocyte hypertrophy); details: mean area of epididymal adipocyte, HFD-fed mice
Procedure: Animal studies were performed and approved under the guidelines of the Institutional Animal Care and Use Committee in Taiwan (12 Mar. 2015). The 4-week old male C57BL/6J mice (total amount n=63) were obtained from the National Laboratory Animal Center (Taipei, Taiwan). After acclimatization for one week, all of the mice were randomly assigned into a control (CON) group and a high-fat diet (HFD) group. For the following 12 weeks, the CON group (n=9) received a control diet or a low-fat diet (Diet 12450B, Research Diets, Inc., New Brunswick, N.J., USA), while the HFD group (n=54) received a high-fat diet (Diet 12451, Research Diets, New Brunswick, N.J., USA). The low-fat diet was composed of protein 20%, carbohydrate 70% and fat 10%, whereas the high-fat diet was composed of protein 20%, carbohydrate 35%, and fat 45% (of total energy, % kcal). After HFD feeding for 8 weeks, the HFD group was randomly subdivided into six groups (n=9 per group) receiving different treatments and fed on HFD. […] The HF+AnK1, HF+AnK2, and HF+AnK3 groups are collectively termed AnK-treated HFD groups in the following examples. The CON mice were administered vehicle. All treatments were administered via oral gavage once daily. After administration for 4 weeks, all mice were fasted 12 hours, and blood was collected from the retro-orbital sinus under ether anesthesia. At the end of the experiment, the mice were sacrificed via carbon dioxide inhalation. Liver, adipose tissue, and skeletal muscle were collected and immediately stored at −80° C. for target gene analysis.
Parts of visceral adipose and liver specimens were fixed with formalin (200 g/kg) neutral buffered solution and embedded in paraffin. A series of 8 μm-thick sections was cut and stained with hematoxylin and eosin. For microscopic examination, a microscope (Olympus BX51, Olympus, Tokyo, Japan) was used and the images were photographed.
Adipocyte hypertrophy, the pathological enlargement of adipocytes, is often found in subjects with type 2 diabetes and hyperlipidemia. To verify the therapeutic effect of AnK on adipocyte hypertrophy, morphology of the epididymal white adipose tissue from mice of the HF group and the AnK-treated HFD groups was examined. Micrographs (magnification 200X) of the EWAT sections for each group were shown in FIG. 4 and analyzed to determine the mean area of an epididymal adipocyte.

Structure (SMILES) | mRNA levels of aP2 [1] | mRNA levels of SREBP1c [2] | PPARα expression levels (protein) [3] | expression levels of FAS (protein) [4] | FAS expression levels (protein) [4] | Adipocyte size ([5]; HF + AnK1: AnK 10 mg/kg/day oral gavage 4 weeks) [μm^2] | Adipocyte size ([5]; HF + AnK2: AnK 20 mg/kg/day oral gavage 4 weeks) [μm^2] | Adipocyte size ([5]; HF + AnK3: AnK 40 mg/kg/day oral gavage 4 weeks) [μm^2] | Adipocyte size ([5]; HF + Metf: metformin 300 mg/kg/day oral gavage 4 weeks) [μm^2]
C=C(CC[C@@H](C)[C@H]1CC[C@H]2C3=C(C(=O)C[C@]12C)[C@@]1(C)CC[C@@H](O)[C@](C)(O)[C@@H]1C[C@@H]3O)C(C)C(=O)O (stereo partly drawn) [AnK, 3α,4β,7β-trihydroxy-4α-methylergosta-8,24(28)-dien-11-on-25S-26-oic acid] | significantly decreased | significantly decreased | significantly increased | significantly reduced | decreased | 6548.6 ± 214.7 | 6483.8 ± 319.8 | 5670.8 ± 281.6 | –
CN(C)C(=N)N=C(N)N [Metf, metformin, reference compound] | significantly decreased | significantly decreased | significantly increased | significantly reduced | decreased | – | – | – | 5873.7 ± 345.1
